# Laboratory results as given in patent publication US4141989A, “Fungicidal 3-(N-chloroacetyl-N-arylamino)-gamma-butyrolactone compositions” (Chevron Research Company, priority 1977, dated 1979).
# Assays:
# Type in all cases: in vivo
# Plasmopara viticola [1] = test: Preventive grape downy mildew control, detached Emperor leaves (Example 5, Table I); details: 100 ppm, sprayed before inoculation
# Plasmopara viticola [2] = test: Eradicant grape downy mildew control, detached Emperor leaves (Example 6, Table I); details: 48 h, sprayed 2 days after inoculation, read-out: Eradicative Grape Downy Mildew Control, %
# Bremia lactucae = test: Control of lettuce downy mildew (Example 13, Table VIII)
# [3] = tested on: Pseudoperonospora cubensis; test: Foliar spray control of cucumber downy mildew (Example 15, Table X)
# Phytophthora cryptogea [4] = test: Snapdragon crown and root rot control, soil drench (Example 16, Table XI); details: in vivo
# Phytophthora cryptogea [5] = test: Snapdragon crown and root rot control, foliar spray (Example 16, Table XI); details: in vivo
# Phytophthora cryptogea [6] = test: Safflower crown and root rot control by foliar spray (Example 17, Table XII)
# Plasmopara viticola [7] = test: Preventive grape downy mildew control, detached Cabernet Sauvignon leaves (Example 7, Table II)
# Plasmopara viticola [8] = test: Eradicant downy mildew control on Emperor and Carignane grape leaves (Example 9, Table IV)
# [9] = Carignane leaves, treated 3 days after inoculation
# [10] = Emperor leaves, treated 1 day after inoculation
# [11] = Emperor leaves, treated 2 days after inoculation
Compound,pest or weed control at 100 ppm (Plasmopara viticola [1]) [%],pest or weed control at 100 ppm (Plasmopara viticola [2]) [%],further results
Cc1ccc(N(C(=O)CCl)C2CCOC2=O)cc1C (stereo not shown) [Compound 26],12,87,–
O=C1OCCC1N(C(=O)CCl)c1ccccc1 (stereo not shown) [Compound 5],–,0,–
C=CCN1CCC(N(C(=O)CCl)c2c(C)cccc2C)C1=O (stereo not shown) [Compound 20],–,0,–
Cc1cccc(C)c1N(C(=O)c1ccc(Cl)c(Cl)c1)C1CCOC1=O (stereo not shown) [Compound 2],–,29,–
Cc1cc(N2CCC(N(C(=O)CCl)c3c(C)cccc3C)C2=O)ccc1Cl (stereo not shown) [Compound 22],–,32,–
CCc1cccc(CC)c1N(C(=O)CCl)C1CC(C)OC1=O (stereo not shown) [Compound 12],–,87,–
CC(C)c1ccccc1N(C(=O)CCl)C1CCOC1=O (stereo not shown) [Compound 7],3,–,pest or weed control at 16 ppm (Plasmopara viticola [2]; 16 ppm): 17%
Cc1cccc(C)c1N(C(=O)CCCl)C1CCOC1=O (stereo not shown) [Compound 17],–,50,–
CCc1cccc(CC)c1N(C(=O)CCl)C1CCOC1=O (stereo not shown) [Compound 6],0,39,–
"Manganous ethylene bisdithiocarbamate [Maneb, reference compound]",–,–,% Dead Seedlings (Bremia lactucae): 14.5%; % Control (Bremia lactucae; in vivo): 40.6%; % Control ([3]; 16 ppm): 80%; % Control ([3]; 40 ppm): 90%; % Control ([3]; 100 ppm): 98.3%
Cc1cccc(C)c1N(C(=O)CCl)C1CCN(C(C)C)C1=O (stereo not shown) [Compound 18],15,37,–
Cc1cccc(C)c1N(C(=O)C(Cl)=C(Cl)Cl)C1CCOC1=O (stereo not shown) [Compound 19],–,15,–
"{[1,2-ethanediylbis(carbamodithioato)](2-)} manganese mixture with {[1,2-ethanediylbis(carbamodithioato)](2-)}-0 zinc [Mancozeb, reference compound]",–,–,% Control (Phytophthora cryptogea [4]): 0%; % Control (Phytophthora cryptogea [5]): 0%
COc1ccccc1N(C(=O)CCl)C1CCOC1=O (stereo not shown) [Compound 3],0,12,–
CCC(=O)N(c1ccc(Cl)c(Cl)c1)C1CCOC1=O (stereo not shown) [Compound 1],0,–,pest or weed control at 40 ppm (Plasmopara viticola [2]): 5%
Cc1cccc(C)c1N(C(=O)CBr)C1CCOC1=O (stereo not shown) [Compound 15],–,54,–
Cc1cccc(C)c1N(C(=O)c1ccc(Cl)cc1)C1CCN(C)C1=O (stereo not shown) [Compound 23],–,0,–

Compound,pest or weed control at 100 ppm (Plasmopara viticola [1]) [%],pest or weed control at 100 ppm (Plasmopara viticola [2]) [%],further results
"COC(=O)C(C)N(C(=O)CCl)c1c(C)cccc1C (stereo not shown) [drawing 3, reference compound]",–,–,% Control (Phytophthora cryptogea [6]; 16 ppm): 0%; % Control (Phytophthora cryptogea [6]; 40 ppm): 0%; % Control (Phytophthora cryptogea [6]; 100 ppm): 10%
CCc1cccc(C)c1N(C(=O)CCl)C1CCOC1=O (stereo not shown) [Compound 13],0,87,–
CCc1cccc(C)c1N(C(=O)CCl)C1CC(C)OC1=O (stereo not shown) [Compound 14],–,29,–
O=C1OCCC1N(C(=O)CCl)c1ccc(Cl)c(Cl)c1 (stereo not shown) [Compound 10],89,39,–
O=C1OCCC1N(C(=O)CCl)c1c(Cl)cccc1Cl (stereo not shown) [Compound 9],0,95,pest or weed control at 40 ppm (Plasmopara viticola [2]): 67%
Cc1cc(C)c(N(C(=O)CCl)C2CCOC2=O)c(C)c1 (stereo not shown) [Compound 24],–,0,–
Cc1cccc(C)c1N(C(=O)CCl)C1CCNC1=O (stereo not shown) [Compound 21],–,0,–
"O=C1c2ccccc2C(=O)N1SC(Cl)(Cl)Cl [Folpet, N-(trichloromethylthio)phthalimide, reference compound]",–,–,Percent Control (Plasmopara viticola [7]; 6.4 ppm): 80.1%; Percent Control (Plasmopara viticola [7]; 16 ppm): 98.8%; Percent Control (Plasmopara viticola [7]; 40 ppm): 97.7%
"COC(=O)C(C)N(C(=O)CCl)c1c(C)cccc1C (stereo not shown) [Compound 27, reference compound]",78,96,–
"Cc1cccc(C)c1N(C(=O)CCl)C1CC(C)OC1=O (stereo not shown) [B, 3-(N-chloroacetyl-N-2,6-dimethylphenylamino)-5-methyl-gamma-butyrolactone]",80,–,pest or weed control at 40 ppm (Plasmopara viticola [2]): 95%
CCc1ccccc1N(C(=O)CCl)C1CCOC1=O (stereo not shown) [Compound 8],0,0,–
COc1cccc(OC)c1N(C(=O)CCl)C1CCOC1=O (stereo not shown) [Compound 16],–,67,–
Cc1cccc(C)c1N(C(=O)CCl)C1CCN(C)C1=O (stereo not shown) [Compound 4],–,3,–
O=S(=O)([O-])[O-].[Cu+2] [Cupric sulfate],–,–,Eradication ED50 (ppm of applied spray for 50% control) (Plasmopara viticola [8]; [9]): 380 ppm; Eradication ED90 (ppm of applied spray for 90% control) (Plasmopara viticola [8]; [9]): 610 ppm; Eradication ED50 (ppm of applied spray for 50% control) (Plasmopara viticola [8]; [10]): 118 ppm; Eradication ED90 (ppm of applied spray for 90% control) (Plasmopara viticola [8]; [10]): 289 ppm; Eradication ED50 (ppm of applied spray for 50% control) (Plasmopara viticola [8]; [11]): 204 ppm; Eradication ED90 (ppm of applied spray for 90% control) (Plasmopara viticola [8]; [11]): 445 ppm
Cc1cccc(C(C)(C)C)c1N(C(=O)CCl)C1CCOC1=O (stereo not shown) [Compound 25],–,0,–
O=C1OCCC1N(C(=O)CCl)c1cc(Cl)cc(Cl)c1 (stereo not shown) [Compound 11],45,54,–
